The values below come from US9212163B2, “Pesticidal compositions and processes related thereto” (Dow AgroSciences LLC, priority 2012, dated 2015).

Assay [1] concerns Cabbage Looper (CL) (Trichoplusia ni). Briefly: Bioassay on Cabbage Looper (CL), 128-well diet tray assay. It is filed as in vivo. As to conditions: read-out: CL Rating; for pest or weed control at 50 µg/cm2, 50 µg/cm2: 168 h, % mortality, second instar larvae, 50 μg/cm^2 on artificial diet, 25° C., five to seven days, average of eight wells; for pest or weed control at 50 µg/cm2: Table 5: Prophetic Compounds Subsequently Exemplified. How it is done: Certain molecules disclosed in this document were tested against BAW, CEW and CL using procedures described in the following examples. In the reporting of the results, the “BAW & CEW & CL Rating Table” was used (See Table Section).
Bioassays on CL (Trichoplusia ni)
Bioassays on CL were conducted using a 128-well diet tray assay. One to five second instar CL larvae were placed in each well (3 mL) of the diet tray that had been previously filled with 1 mL of artificial diet to which 50 μg/cm^2 of the test compound (dissolved in 50 μL of 90:10 acetone-water mixture) had been applied (to each of eight wells) and then allowed to dry. Trays were covered with a clear self-adhesive cover, and held at 25° C., 14:10 light-dark for five to seven days. Percent mortality was recorded for the larvae in each well; activity in the eight wells was then averaged. The results are indicated in the table entitled “Table 4: Assay Results Part 2” (See Table Section).

The test system of assay [2] is Beet Armyworm (BAW) (Spodoptera exigua). Put plainly: Bioassay on Beet Armyworm (BAW), 128-well diet tray assay. Particulars: for pest or weed control at 50 µg/cm2, 50 µg/cm2 / pest or weed control at 50 µg/cm2: Spodoptera exigua, read-out: BAW Rating; for pest or weed control at 50 µg/cm2, 50 µg/cm2: 168 h, % mortality, second instar larvae, 50 μg/cm^2 on artificial diet, 25° C., five to seven days, average of eight wells; for pest or weed control at 50 µg/cm2: Table 5: Prophetic Compounds Subsequently Exemplified; for BAW Rating: Table 3: Assay Results Part 1. It is filed as in vivo. The essentials: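 Artificial diet treated with 50 μg/cm^2 compound in 90:10 acetone-water was dried, then one to five second-instar larvae were placed per well, eight wells per compound. Trays were held at 25° C., 14:10 light-dark for five to seven days, and percent mortality averaged across wells.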

Consider `O=C(NC1(C(=O)NCC(F)(F)F)CC1)c1ccc(/C=C/[C@H](c2cc(Cl)c(Cl)c(Cl)c2)C(F)(F)F)cc1C(F)(F)F` (single isomer, unassigned) [Compound F8A], for which the pest or weed control at 50 µg/cm2, 50 µg/cm2 in assay [1] and in assay [2] was 50 to 100% throughout.
On to `O=C(NC1(C(=O)NCC(F)(F)F)CC1)c1ccc(/C=C/[C@@H](c2cc(Cl)c(Cl)c(Cl)c2)C(F)(F)F)cc1C(F)(F)F` (single isomer, unassigned) [Compound F8B], for which the pest or weed control at 50 µg/cm2, 50 µg/cm2 in assay [1] and in assay [2] was 50 to 100% in each case.
For `Cc1cc(/C=C/C(c2cc(Cl)c(Cl)c(Cl)c2)C(F)(F)F)ccc1C(=O)NC1(C(=O)NCC(F)(F)F)CC1` (stereo not drawn) [Compound F2], the pest or weed control at 50 µg/cm2, 50 µg/cm2 in assay [1] and in assay [2] was 50 to 100% throughout.
For the compound `O=C(NC1(C(=O)NCC(F)(F)F)CC1)c1ccc(/C=C/C(c2cc(Cl)c(Cl)c(Cl)c2)C(F)(F)F)cc1Br` (stereo not drawn) [Compound F3], the pest or weed control at 50 µg/cm2, 50 µg/cm2 in assay [1] and in assay [2] was 50 to 100% in each case.
For `O=C(NC1(C(=O)NCC(F)(F)F)CCC1)c1ccc(/C=C/C(c2cc(Cl)c(Cl)c(Cl)c2)C(F)(F)F)cc1Cl` (stereo not drawn) [Compound F4], the pest or weed control at 50 µg/cm2, 50 µg/cm2 in assay [1] and in assay [2] was 50 to 100% throughout.
For the compound `O=C(NC1(C(=O)NCC(F)(F)F)CCC1)c1ccc(/C=C/C(c2cc(Cl)c(Cl)c(Cl)c2)C(F)(F)F)cc1Br` (stereo not drawn) [Compound F5], the pest or weed control at 50 µg/cm2, 50 µg/cm2 in assay [1] and in assay [2] was 50 to 100% throughout.
As for `O=C(NC1(C(=S)NCC(F)(F)F)CC1)c1ccc(/C=C/C(c2cc(Cl)c(Cl)c(Cl)c2)C(F)(F)F)cc1C(F)(F)F` (stereo not drawn) [Compound F6, (E)-4-(4,4,4-Trifluoro-3-(3,4,5-trichlorophenyl)but-1-enyl)-N-(1-(2,2,2-trifluoroethylcarbamothioyl)cyclopropyl)-2-(trifluoromethyl)benzamide], the pest or weed control at 50 µg/cm2, 50 µg/cm2 in assay [1] and in assay [2] was 50 to 100% in each case.
`N#CC1(NC(=O)c2ccc(/C=C/C(c3cc(Cl)c(Cl)c(Cl)c3)C(F)(F)F)cc2Br)CC1` (stereo not drawn) [Compound F7, (E)-2-Bromo-N-(1-cyanocyclopropyl)-4-(4,4,4-trifluoro-3-(3,4,5-trichlorophenyl)but-1-en-1-yl)benzamide]: the pest or weed control at 50 µg/cm2, 50 µg/cm2 in assay [1] and in assay [2] was 50 to 100% in each case.
As to `O=C(NC1(C(=O)NCC(F)(F)F)CC1)c1ccc(/C=C/C(c2cc(Cl)c(Cl)c(Cl)c2)C(F)(F)F)cc1Cl` (stereo not drawn) [Compound F8], the pest or weed control at 50 µg/cm2, 50 µg/cm2 in assay [1] and in assay [2] was 50 to 100% throughout.
Turning to `O=C(NC1CC1(F)F)c1ccc(/C=C/C(c2cc(Cl)c(Cl)c(Cl)c2)C(F)(F)F)cc1Br` (stereo not drawn) [Compound P31], the pest or weed control at 50 µg/cm2 in assay [1] and in assay [2] was 50 to 100% throughout.
Consider `O=C(NC1(C(=O)NCC(F)(F)F)CC1)c1ccc(/C=C/C(c2ccc(F)c(F)c2F)C(F)(F)F)cc1C(F)(F)F` (stereo not drawn) [Compound P65], for which the pest or weed control at 50 µg/cm2 in assay [1] and in assay [2] was 50 to 100% throughout.
Take `O=C(NC1(C(=O)NCC(F)(F)F)CC1)c1ccc(/C=C/C(c2cc(Cl)c(Cl)cc2Cl)C(F)(F)F)cc1Br` (stereo not drawn) [Compound P108]: the pest or weed control at 50 µg/cm2 in assay [1] and in assay [2] was 50 to 100% in each case.
`O=C(NC1(C(=O)NCC(F)(F)F)CC1)c1ccc(/C=C/C(c2cc(Cl)c(Cl)cc2Cl)C(F)(F)F)cc1C(F)(F)F` (stereo not drawn) [Compound P110]: the pest or weed control at 50 µg/cm2 in assay [1] and in assay [2] was 50 to 100% each time.
In the case of `O=C(NC1(C(=O)NCC(F)(F)F)CC1)c1ccc(/C=C/C(c2cccc(OC(F)(F)F)c2)C(F)(F)F)cc1Br` (stereo not drawn) [Compound P153], the pest or weed control at 50 µg/cm2 in assay [1] and in assay [2] was 50 to 100% each time.
Consider `N#Cc1cc(/C=C/C(c2cc(Cl)cc(C(F)(F)F)c2)C(F)(F)F)ccc1-n1cncn1` (stereo not drawn) [DC33], for which, in assay [2], the “BAW Rating” value was “A (50-100)”.
Still for that read-out and setting: in the case of `COc1c(Cl)cc(C(/C=C/c2ccc(-n3cncn3)c(C#N)c2)C(F)(F)F)cc1Cl` (stereo not drawn) [DC34] it was “A (50-100)”; in that of `N#Cc1cc(/C=C/C(c2cc(Cl)c(F)c(Cl)c2)C(F)(F)F)ccc1-n1cncn1` (stereo not drawn) [DC35], “A (50-100)”; in that of `N#Cc1cc(/C=C/C(c2cc(Cl)cc(Cl)c2)C(F)(F)F)ccc1-n1cnc([N+](=O)[O-])n1` (stereo not drawn) [DC37], “A (50-100)”.
For `N#Cc1cc(/C=C/C(c2cc(Cl)cc(Cl)c2)C(F)(F)F)ccc1-n1cnc(N)n1` (stereo not drawn) [DC38], the “BAW Rating” value in assay [2] is “A (50-100)”.
Still for that read-out and setting: then `CC(=O)Nc1ncn(-c2ccc(/C=C/C(c3cc(Cl)cc(Cl)c3)C(F)(F)F)cc2C#N)n1` (stereo not drawn) [DC39], with “A (50-100)”.
On the same count and under the same terms, in the case of `N#Cc1cc(/C=C/C(c2cc(Cl)c(Cl)c(Cl)c2)C(F)(F)F)ccc1-n1cnc([N+](=O)[O-])n1` (stereo not drawn) [DC40, (E)-2-(3-Nitro-1H-1,2,4-triazol-1-yl)-5-(4,4,4-trifluoro-3-(3,4,5-trichlorophenyl)but-1-en-1-yl)benzonitrile] it was “A (50-100)”; in that of `N#Cc1cc(/C=C/C(c2cc(Cl)c(Cl)c(Cl)c2)C(F)(F)F)ccc1-n1cnc(N)n1` (stereo not drawn) [DC41, (E)-2-(3-Amino-1H-1,2,4-triazol-1-yl)-5-(4,4,4-trifluoro-3-(3,4,5-trichlorophenyl)but-1-en-1-yl)benzonitrile], “A (50-100)”; in that of `N#Cc1cc(/C=C/C(c2cc(Cl)c(Cl)c(Cl)c2)C(F)(F)F)ccc1-n1cnc(N(C(=O)C2CC2)C(=O)C2CC2)n1` (stereo not drawn) [DC42, (E)-N-(1-(2-Cyano-4-(4,4,4-trifluoro-3-(3,4,5-trichlorophenyl)but-1-en-1-yl)phenyl)-1H-1,2,4-triazol-3-yl)-N-(cyclopropanecarbonyl)cyclopropanecarboxamide], “A (50-100)”.
Same read-out and setting: then `N#Cc1cc(/C=C/C(c2cc(Cl)c(Cl)c(Cl)c2)C(F)(F)F)ccc1-n1cnc(NC(=O)C2CC2)n1` (stereo not drawn) [DC43, (E)-N-(1-(2-Cyano-4-(4,4,4-trifluoro-3-(3,4,5-trichlorophenyl)but-1-en-1-yl)phenyl)-1H-1,2,4-triazol-3-yl)cyclopropanecarboxamide], with “A (50-100)”; and `Cc1cc(/C=C/C(c2cc(Cl)cc(Cl)c2)C(F)(F)F)cc(C#N)c1-n1cncn1` (stereo not drawn) [DC44], with “A (50-100)”.
Take `Cc1cc(/C=C/C(c2cc(Cl)c(Cl)c(Cl)c2)C(F)(F)F)cc(C#N)c1-n1cncn1` (stereo not drawn) [DC45]: in assay [2], the “BAW Rating” value was “A (50-100)”.
The same measure, in the same setting: in the case of `N#Cc1cc(/C=C\C(c2cc(Cl)c(F)c(Cl)c2)C(F)(F)F)ccc1-n1cncn1` (stereo not drawn) [DC46] it was “A (50-100)”; in that of `FC(F)(F)C(/C=C/c1ccc(-n2cncn2)c(Br)c1)c1cc(Cl)cc(Cl)c1` (stereo not drawn) [DC47], “A (50-100)”; in that of `Fc1cc(/C=C/C(c2cc(Cl)cc(Cl)c2)C(F)(F)F)ccc1-n1cncn1` (stereo not drawn) [DC48], “A (50-100)”.
As to `FC(F)(F)C(/C=C/c1ccc(-n2cncn2)c(Cl)c1)c1cc(Cl)c(Cl)c(Cl)c1` (stereo not drawn) [DC49], the “BAW Rating” value in assay [2] is listed as “A (50-100)”.
Same read-out and setting: then `FC(F)(F)C(/C=C/c1ccc(-n2cncn2)c(Cl)c1)c1cc(Cl)cc(Cl)c1` (stereo not drawn) [DC50], with “A (50-100)”; and `FC(F)(F)c1cc(/C=C/C(c2cc(Cl)cc(Cl)c2)C(F)(F)F)ccc1-n1cncn1` (stereo not drawn) [DC51], with “A (50-100)”.
On to `CNc1cc(/C=C/C(c2cc(Cl)cc(Cl)c2)C(F)(F)F)ccc1-n1cncn1` (stereo not drawn) [DC57, (E)-5-(3-(3,5-Dichlorophenyl)-4,4,4-trifluorobut-1-en-1-yl)-N-methyl-2-(1H-1,2,4-triazol-1-yl)aniline], for which the “BAW Rating” value in assay [2] is “A (50-100)”.
The same measure, in the same setting: in the case of `CCOC(=O)c1cc(/C=C/C(c2cc(Cl)cc(Cl)c2)C(F)(F)F)ccc1-n1cncn1` (stereo not drawn) [DC60] it was “A (50-100)”; in that of `Cc1cc(/C=C/C(c2cc(Cl)cc(Cl)c2)C(F)(F)F)ccc1-n1cncn1` (stereo not drawn) [DC62], “A (50-100)”; in that of `Cc1cc(/C=C/C(c2cc(Cl)c(Cl)c(Cl)c2)C(F)(F)F)ccc1-n1cncn1` (stereo not drawn) [DC63], “A (50-100)”.
For the compound `FC(F)(F)C(/C=C/c1ccc(-n2cncn2)cc1Cl)c1cc(Cl)c(Cl)c(Cl)c1` (stereo not drawn) [DC66], the “BAW Rating” value in assay [2] is reported as “A (50-100)”.
The same measure, in the same setting: in the case of `FC(F)(F)C(/C=C/c1ccc(-n2cncn2)cc1Cl)c1cc(Cl)cc(Cl)c1` (stereo not drawn) [DC67] it was “A (50-100)”.
In the case of `C/C(=C\C(c1cc(Cl)cc(Cl)c1)C(F)(F)F)c1ccc(-n2cncn2)cc1` (stereo not drawn) [DC68, (E)-1-(4-(4-(3,5-Dichlorophenyl)-5,5,5-trifluoropent-2-en-2-yl)phenyl)-1H-1,2,4-triazole], the “BAW Rating” value in assay [2] was “A (50-100)”.
With `COC(/C=C/c1ccc(-n2cncn2)cc1)(c1cc(Cl)cc(Cl)c1)C(F)(F)F` (stereo not drawn) [DC70, (E)-1-(4-(3-(3,5-Dichlorophenyl)-4,4,4-trifluoro-3-methoxybut-1-en-1-yl)phenyl)-1H-1,2,4-triazole], in assay [2], the “BAW Rating” value is recorded as “A (50-100)”.
